Test results reported in patent publication US20250228239A1, “MOLECULES HAVING PESTICIDAL UTILITY, AND INTERMEDIATES, COMPOSITIONS, AND PROCESSES, RELATED THERETO” (priority 2024, published 2025).
Like-named read-outs stand apart in the source and are kept apart here.

Key:
[1] = system: Cabbage Looper (Trichoplusia ni, TRIPNI); assay: Bioassays on Cabbage Looper (CL), 128-well diet tray assay; type: in vivo; conditions: Trichoplusia ni
Outline: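 Second-instar larvae (1–5 per well) placed on artificial diet surface-treated with 50 μg/cm^2 test molecule applied in 90:10 acetone-water and dried. Held at 25° C., 14:10 light-dark, for five to seven days. Percent mortality scored per well and averaged over eight wells.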

[2] = system: Beet Armyworm (Spodoptera exigua, LAPHEG); assay: Bioassays on Beet Armyworm (BAW), 128-well diet tray assay; type: in vivo; conditions: Spodoptera exigua
Outline: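 Diet-overlay assay: 50 μg/cm^2 compound applied in 90:10 acetone-water to artificial diet, allowed to dry, then infested with 1–5 L2 larvae/well; 8 wells/compound; covered, vented; 25° C., 14:10 L:D, 5–7 d; % mortality per well, averaged.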

[3] = Cabbage Looper, rating class, read-out: CL
[4] = Beet Armyworm, rating class, read-out: BAW
[5] = Table ABC: Biological Results, species CL, read-out: CL
[6] = Table ABC: Biological Results, species BAW, read-out: BAW

| SMILES | pest or weed control at 50 µg/cm2 [1, 3] [%] | pest or weed control at 50 µg/cm2 [2, 4] [%] | pest or weed control at 50 µg/cm2 [1, 5] [%] | pest or weed control at 50 µg/cm2 [2, 6] [%] | also measured |
| --- | --- | --- | --- | --- | --- |
| CC(=O)Nc1cc(NC(=O)c2cc(NC(=O)[C@H]3[C@H](c4ccc(F)c(C(F)(F)F)c4)C3(Cl)Cl)cc(F)c2F)c(F)cc1F [F1587, N-(5-Acetamido-2,4-difluorophenyl)-5-((1R,3R)-2,2-dichloro-3-(4-fluoro-3-(trifluoromethyl)phenyl)cyclopropane-1-carboxamido)-2,3-difluorobenzamide] | 50 to 100 | 50 to 100 |  |  |  |
| CN(C(=O)C(F)F)c1c(F)ccc(NC(=O)c2cc(NC(=O)[C@H]3[C@H](c4cc(Cl)cc(Cl)c4)C3(Cl)Cl)ccc2Cl)c1F [F1462, 2-Chloro-5-((1R,3R)-2,2-dichloro-3-(3,5-dichlorophenyl)cyclopropane-1-carboxamido)-N-(3-(2,2-difluoro-N-methylacetamido)-2,4-difluorophenyl)benzamide] | 50 to 100 | 50 to 100 |  |  |  |
| O=C(Nc1ccc(F)c(NC(=O)C(F)F)c1F)c1cc(NC(=O)[C@H]2[C@H](c3cc(Cl)c(F)c(Cl)c3)C2(Cl)Cl)ccc1Cl (relative stereo) [F1331, trans-2-Chloro-5-(2,2-dichloro-3-(3,5-dichloro-4-fluorophenyl)cyclopropane-1-carboxamido)-N-(3-(2,2-difluoroacetamido)-2,4-difluorophenyl)benzamide] |  |  | 50 to 100 | 50 to 100 |  |
| O=C(Nc1ccc(F)c(NC(=O)C(F)(F)C(F)(F)C(F)(F)F)c1F)c1cc(NC(=O)[C@H]2[C@H](c3ccc(Cl)c(Cl)c3)C2(Cl)Cl)ccc1Cl [F1463, 2-Chloro-5-((1R,3R)-2,2-dichloro-3-(3,4-dichlorophenyl)cyclopropane-1-carboxamido)-N-(2,4-difluoro-3-(2,2,3,3,4,4,4-heptafluorobutanamido)phenyl)benzamide] | 50 to 100 | 50 to 100 |  |  |  |
| Cc1cc(O)ccc1NC(=O)c1cc(NC(=O)[C@H]2[C@H](c3cc(Cl)cc(Cl)c3)C2(Cl)Cl)ccc1Cl (relative stereo) [F1224, trans-2-chloro-5-(2,2-dichloro-3-(3,5-dichlorophenyl)cyclopropane-1-carboxamido)-N-(4-hydroxy-2-methylphenyl)benzamide] |  |  | 50 to 100 | 50 to 100 |  |
| CC1OC1C(=O)Nc1c(F)ccc(NC(=O)c2cc(NC(=O)[C@H]3[C@H](c4ccc(F)c(C(F)(F)F)c4)C3(Cl)Cl)ccc2Cl)c1F (stereo partly drawn) [F1748, N-(3-(2-Chloro-5-((1R,3R)-2,2-dichloro-3-(4-fluoro-3-(trifluoromethyl)phenyl)cyclopropane-1-carboxamido)benzamido)-2,6-difluorophenyl)-3-methyloxirane-2-carboxamide] | 50 to 100 | 50 to 100 |  |  |  |
| CCNC(=O)c1cc(NC(=O)[C@H]2[C@H](c3ccc(F)c(Cl)c3)C2(Cl)Cl)cc(C(F)(F)F)c1Cl (relative stereo) [F2053, trans-2-Chloro-5-(2,2-dichloro-3-(3-chloro-4-fluorophenyl)cyclopropane-1-carboxamido)-N-ethyl-3-(trifluoromethyl)benzamide] |  |  |  |  | pest or weed control at 50 µg/cm2 ([1]; Cabbage Looper, Table ABC / ABC-DP rating, read-out: CL rating): 50 to 100%; pest or weed control at 50 µg/cm2 ([2]; Beet Armyworm, Table ABC / ABC-DP rating, read-out: BAW rating): 50 to 100% |
| Cc1c(Cl)cc(NC(=O)[C@H]2[C@H](c3ccc(F)c(Cl)c3)C2(Cl)Cl)cc1C(=O)Nc1ccc(F)c(N)c1F (relative stereo) [F1223, trans-N-(3-Amino-2,4-difluorophenyl)-3-chloro-5-(2,2-dichloro-3-(3-chloro-4-fluorophenyl)cyclopropane-1-carboxamido)-2-methylbenzamide] |  |  | 50 to 100 | 50 to 100 |  |
| O=C(Nc1ccc(F)cc1F)c1cc(NC(=O)[C@H]2[C@H](c3cc(F)c(F)c(F)c3)C2(Cl)Cl)ccc1Cl [F1693, 2-Chloro-5-((1R,3R)-2,2-dichloro-3-(3,4,5-trifluorophenyl)cyclopropane-1-carboxamido)-N-(2,4-difluorophenyl)benzamide] | 50 to 100 | 50 to 100 |  |  |  |
